# ChEMBL document CHEMBL1201862, “PubChem BioAssay data set” (2004)
#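 Growth conditions: 96-well plates. Treatment: test compound, 48 hours, 5 concentrations. Analysis: linear interpolation between bracketing concentrations; unreached endpoints set to highest concentration. Abbreviation: GI50, concentration required for 50% inhibition of growth.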 Calls of active or inactive are those of the source. Cut-off read from the data, not from the text of the source: active = GI50 up to about 1.1 µM and inactive = higher. Non-standard residues stand in square brackets, D forms with d. Residues, ends and D or L forms follow the SMILES beside them. ξ: configuration not given here. Pentanoyl(2-O,4-OH,5-Cl) = O=C(O)C(O)CC(O)CCl; Ile(3ξ) = CCC(C)[C@H](N)C(=O)O; NMeV = CN[C@H](C(=O)O)C(C)C; NMeA = CN[C@@H](C)C(=O)O; βAla = NCCC(=O)O
# Experiments:
# Assay in all cases: NCI anticancer screen, dose series, 48 h
# NCI-H460 = test system: NCI-H460
# OVCAR-4 = test system: OVCAR-4
# TK-10 = test system: TK-10
# UACC-257 = test system: UACC-257
# HCC 2998 = test system: HCC 2998
# IGROV-1 = test system: IGROV-1
# MOLT-4 = test system: MOLT-4
# LOX IMVI = test system: LOX IMVI
# SF-539 = test system: SF-539
# U-251 = test system: U-251
# Malme-3M = test system: Malme-3M
# NCI-H226 = test system: NCI-H226
# SF-268 = test system: SF-268
# SW-620 = test system: SW-620
# RPMI-8226 = test system: RPMI-8226
# SK-MEL-5 = test system: SK-MEL-5
# SN12C = test system: SN12C
# OVCAR-5 = test system: OVCAR-5
# SK-OV-3 = test system: SK-OV-3
# A549 = test system: A549
Structure (SMILES),GI50 (NCI-H460),GI50 (OVCAR-4),GI50 (TK-10),GI50 (UACC-257),GI50 (HCC 2998),GI50 (IGROV-1),GI50 (MOLT-4),GI50 (LOX IMVI),GI50 (SF-539),GI50 (U-251),GI50 (Malme-3M),GI50 (NCI-H226),GI50 (SF-268),GI50 (SW-620),GI50 (RPMI-8226),GI50 (SK-MEL-5),GI50 (SN12C),GI50 (OVCAR-5),GI50 (SK-OV-3),GI50 (A549)
CN(C)c1ccc(C2CC(=O)CC(c3ccc(N(C)C)cc3)C23C(=O)NC(=O)NC3=O)cc1 (stereo not given),> 25 µM (inactive),> 25 µM (inactive),> 25 µM (inactive),> 25 µM (inactive),> 25 µM (inactive),> 25 µM (inactive),0.0025 µM (active),> 25 µM (inactive),14.9 µM (inactive),20.6 µM (inactive),8.73 µM (inactive),> 25 µM (inactive),19.5 µM (inactive),> 25 µM (inactive),> 25 µM (inactive),> 25 µM (inactive),> 25 µM (inactive),> 25 µM (inactive),–,–
Cc1nn(C)c2c1C(=O)N(C)CC(=O)N2C,> 100 µM (inactive),> 100 µM (inactive),> 100 µM (inactive),> 100 µM (inactive),> 100 µM (inactive),> 100 µM (inactive),> 100 µM (inactive),–,> 100 µM (inactive),> 100 µM (inactive),> 100 µM (inactive),–,> 100 µM (inactive),> 100 µM (inactive),> 100 µM (inactive),> 100 µM (inactive),> 100 µM (inactive),> 100 µM (inactive),> 100 µM (inactive),> 100 µM (inactive)
CN(C)CCCNC(=O)N/N=C/c1ccccc1,> 100 µM (inactive),–,> 100 µM (inactive),> 100 µM (inactive),–,> 100 µM (inactive),> 100 µM (inactive),> 100 µM (inactive),> 100 µM (inactive),> 100 µM (inactive),> 100 µM (inactive),> 100 µM (inactive),> 100 µM (inactive),> 100 µM (inactive),–,> 100 µM (inactive),> 100 µM (inactive),–,> 100 µM (inactive),> 100 µM (inactive)
"CCC(C)[C@@H]1NC(=O)[C@@H]2CCCN2C(=O)C(CC(O)CCl)OC(=O)CCNC(=O)[C@H](C)N(C)C(=O)[C@H](C(C)C)N(C)C1=O (stereo not given in full) (cyclo([Ile(3ξ)][NMeV][NMeA][βAla][Pentanoyl(2-O,4-OH,5-Cl)]P))",> 31.4 µM (inactive),> 36.2 µM (inactive),> 100 µM (inactive),2.46 µM (inactive),–,> 100 µM (inactive),–,–,> 100 µM (inactive),> 29 µM (inactive),12.3 µM (inactive),> 100 µM (inactive),> 100 µM (inactive),> 58.9 µM (inactive),0.247 µM (active),0.248 µM (active),> 100 µM (inactive),> 100 µM (inactive),> 100 µM (inactive),47.6 µM (inactive)
Cc1c(Cl)c(=O)oc2cc(OCC(=O)c3ccccc3)ccc12,> 100 µM (inactive),> 100 µM (inactive),92 µM (inactive),> 100 µM (inactive),> 100 µM (inactive),> 100 µM (inactive),> 100 µM (inactive),–,> 100 µM (inactive),33.2 µM (inactive),> 100 µM (inactive),> 100 µM (inactive),> 100 µM (inactive),> 100 µM (inactive),–,> 100 µM (inactive),> 100 µM (inactive),> 100 µM (inactive),> 100 µM (inactive),> 100 µM (inactive)
O=c1c(-c2ccccc2)c2oc(c1-c1ccccc1)CS(=O)(=O)CCC2,31.6 µM (inactive),–,37.5 µM (inactive),28.8 µM (inactive),> 10 µM (inactive),45 µM (inactive),24.2 µM (inactive),20.2 µM (inactive),18.2 µM (inactive),–,49.4 µM (inactive),18.5 µM (inactive),21.9 µM (inactive),32.7 µM (inactive),26.9 µM (inactive),27.7 µM (inactive),16.9 µM (inactive),–,> 100 µM (inactive),57.3 µM (inactive)
O=C1NC(=O)C(CCO)(c2ccccc2)C(=O)N1,> 100 µM (inactive),> 100 µM (inactive),–,> 100 µM (inactive),> 100 µM (inactive),> 100 µM (inactive),> 100 µM (inactive),> 31.6 µM (inactive),> 100 µM (inactive),> 100 µM (inactive),> 100 µM (inactive),> 100 µM (inactive),> 100 µM (inactive),> 100 µM (inactive),–,> 100 µM (inactive),> 100 µM (inactive),> 100 µM (inactive),> 100 µM (inactive),> 100 µM (inactive)
CC(C(=O)NCCNC(=O)CCCC(=O)N(C)O)C(=O)NCCNC(=O)CCCC(=O)N(C)O,> 100 µM (inactive),> 100 µM (inactive),> 100 µM (inactive),> 100 µM (inactive),> 100 µM (inactive),> 100 µM (inactive),> 100 µM (inactive),> 100 µM (inactive),–,> 100 µM (inactive),> 100 µM (inactive),> 100 µM (inactive),> 100 µM (inactive),> 100 µM (inactive),> 100 µM (inactive),> 100 µM (inactive),–,> 100 µM (inactive),> 100 µM (inactive),> 100 µM (inactive)
